Reference: patent US20240409536A1, “COMPOUNDS AND METHODS FOR MODULATING SPLICING” (REMIX THERAPEUTICS INC., priority 2021, published 2024)

Key:
HiBiT-tagged MYB protein = assay: HiBiT protein abundance assay, MYB (K562 HiBiT knock-in cells); assay type: cell-based, human; settings: 24 hours
In short: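 Luminescent readout of HiBiT-tagged endogenous protein after lysis, following 24 h compound exposure of knock-in K562 lines at 37 °C. Ten 3-fold concentrations from 10 μM final, DMSO ≤0.25%. Four-parameter logistic fit of normalized response gives concentration halving abundance (IC50).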

MYB mRNA = assay: Gene panel canonical junction qPCR assay, MYB CJ mRNA decrease; assay type: cell-based, human; settings: Homo sapiens, canonical junction qPCR, read-out: MYB IC50 (decrease in CJ mRNA levels)
In short: (§1)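 A673 or K562 cells were treated with compound, and lysates underwent cDNA synthesis and qPCR with a CY5 5′-nuclease probe or primer spanning the canonical exon junction. ΔCt versus GAPDH, GUSB or PPIA was normalized to DMSO (2^(−ΔΔCt)), converted to percentage response and fitted four-parameter logistic for IC50.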

SMN2 mRNA = assay: Gene panel canonical junction qPCR assay, SMN2 CJ mRNA decrease; assay type: cell-based, human; settings: Homo sapiens, canonical junction qPCR, read-out: SMN2 IC50 (decrease in CJ mRNA levels)
In short: as §1

Target C mRNA = assay: Gene panel canonical junction qPCR assay, Target C CJ mRNA decrease; assay type: cell-based; settings: Homo sapiens, canonical junction qPCR, read-out: Target C IC50 (decrease in CJ mRNA levels)
In short: as §1

HTT mRNA = assay: Gene panel canonical junction qPCR assay, HTT CJ mRNA decrease; assay type: cell-based, human; settings: Homo sapiens, canonical junction qPCR, read-out: HTT IC50 (decrease in CJ mRNA levels)
In short: as §1

Row | Compound | IC50 (HiBiT-tagged MYB protein) | IC50 (MYB mRNA) | IC50 (SMN2 mRNA) | IC50 (Target C mRNA) | IC50 (HTT mRNA)
1 | CN[C@@H]1CCN(c2ccc(C(=O)Nc3cc(F)c4nc(C)cn4c3)c3nccnc23)C1 (single isomer, unassigned) [Compound 193, N-{8-fluoro-2-methylimidazo[1,2-a]pyridin-6-yl}-8-[3-(methylamino)pyrrolidin-1-yl]quinoxaline-5-carboxamide] | < 0.1 µM | 0.1 to 1 µM | < 0.1 µM | > 10 µM | > 10 µM
2 | CN[C@H]1CCN(c2ccc(C(=O)Nc3cc(F)c4nc(C)cn4c3)c3nccnc23)C1 (single isomer, unassigned) [Compound 194, N-{8-fluoro-2-methylimidazo[1,2-a]pyridin-6-yl}-8-[3-(methylamino)pyrrolidin-1-yl]quinoxaline-5-carboxamide] | < 0.1 µM | < 0.1 µM | < 0.1 µM | 1 to 10 µM | 1 to 10 µM
3 | Cc1cn2nc(NC(=O)c3ccc(N4CCNCC4)c4ccnnc34)cc(C)c2n1 [Compound 100] | 0.1 to 1 µM | 0.1 to 1 µM | 0.1 to 1 µM | 0.1 to 1 µM | 0.1 to 1 µM
4 | Cc1cn2cc(NC(=O)c3ccc(N4CCNC5(CC5)C4)c4ccnnc34)cc(F)c2n1 [Compound 105] | 0.1 to 1 µM | 0.1 to 1 µM | < 0.1 µM | > 10 µM | 1 to 10 µM
5 | Cc1cn2cc(NC(=O)c3ccc(N4C[C@H]5CC[C@@H](C4)N5)c4ccnnc34)cc(F)c2n1 [Compound 108] | 0.1 to 1 µM | 0.1 to 1 µM | < 0.1 µM | 1 to 10 µM | 1 to 10 µM
6 | Cc1cn2nc(NC(=O)c3ccc(N4CCNCC4)c4ccnnc34)cc2c(C)n1 [Compound 123] | 1 to 10 µM | 1 to 10 µM | 1 to 10 µM | 1 to 10 µM | 1 to 10 µM
7 | Cc1cn2cc(NC(=O)c3ccc(N4CCNCC4)c4ccnnc34)cc(C)c2n1 [Compound 125] | 0.1 to 1 µM | 0.1 to 1 µM | < 0.1 µM | 1 to 10 µM | 1 to 10 µM
8 | O=C(Nc1cn[nH]c1)c1ccc(N2CCNCC2)c2ccnnc12 [Compound 126] | > 10 µM | > 10 µM | > 10 µM | > 10 µM | > 10 µM
9 | Cc1cn2cc(NC(=O)c3ccc(N4CCN(C)CC4)c4ccnnc34)cc(F)c2n1 [Compound 127] | 0.1 to 1 µM | 0.1 to 1 µM | < 0.1 µM | 1 to 10 µM | 1 to 10 µM
10 | Cc1cn2cc(NC(=O)c3ccc(N4CCNC(C)C4)c4ccnnc34)cc(F)c2n1 (centres unmarked) [Compound 128] | < 0.1 µM | < 0.1 µM | < 0.1 µM | 1 to 10 µM | 0.1 to 1 µM
11 | CCC1CN(c2ccc(C(=O)Nc3cc(F)c4nc(C)cn4c3)c3nnccc23)CCN1 (centres unmarked) [Compound 130] | < 0.1 µM | < 0.1 µM | < 0.1 µM | – | 1 to 10 µM
12 | Cc1cn2cc(NC(=O)c3ccc(N4CC5(CNC5)C4)c4ccnnc34)cc(F)c2n1 [Compound 131] | < 0.1 µM | 0.1 to 1 µM | < 0.1 µM | 1 to 10 µM | 1 to 10 µM
13 | Cc1cn2cc(NC(=O)c3ccc(N4CCC(N5CCCC5)C4)c4ccnnc34)cc(F)c2n1 (centres unmarked) [Compound 133] | 0.1 to 1 µM | 1 to 10 µM | < 0.1 µM | 1 to 10 µM | 1 to 10 µM
14 | Cc1cn2cc(NC(=O)c3ccc(N4CCC(N(C)C)C4)c4ccnnc34)cc(F)c2n1 (centres unmarked) [Compound 134] | < 0.1 µM | 0.1 to 1 µM | < 0.1 µM | 1 to 10 µM | 1 to 10 µM
15 | Cc1cn2cc(NC(=O)c3ccc(N4CCC(N(C)C)CC4)c4ccnnc34)cc(F)c2n1 [Compound 137] | < 0.1 µM | < 0.1 µM | < 0.1 µM | 0.1 to 1 µM | 0.1 to 1 µM
16 | Cc1cn2cc(NC(=O)c3ccc(N4CCC(NC(C)(C)C)CC4)c4ccnnc34)cc(F)c2n1 [Compound 138] | 0.1 to 1 µM | 0.1 to 1 µM | < 0.1 µM | 1 to 10 µM | 1 to 10 µM
17 | Cc1cn2cc(NC(=O)c3ccc(C4CCN(C)CC4)c4ccnnc34)cc(F)c2n1 [Compound 140] | < 0.1 µM | 0.1 to 1 µM | < 0.1 µM | > 10 µM | 1 to 10 µM
18 | CCN1CCC(c2ccc(C(=O)Nc3cc(F)c4nc(C)cn4c3)c3nnccc23)CC1 [Compound 141] | < 0.1 µM | 0.1 to 1 µM | < 0.1 µM | 1 to 10 µM | 1 to 10 µM
19 | Cc1cn2cc(NC(=O)c3ccc(N4CCN[C@H](C)C4)c4ccnnc34)cc(F)c2n1 [Compound 146] | < 0.1 µM | < 0.1 µM | < 0.1 µM | > 10 µM | 0.1 to 1 µM
20 | Cc1cn2cc(NC(=O)c3ccc(N4CCN(C)[C@H](C)C4)c4ccnnc34)cc(F)c2n1 [Compound 149] | < 0.1 µM | < 0.1 µM | < 0.1 µM | 1 to 10 µM | 1 to 10 µM
21 | Cc1cn2cc(NC(=O)c3ccc(N4CCN(C)[C@@H](C)C4)c4ccnnc34)cc(F)c2n1 [Compound 150] | 0.1 to 1 µM | 0.1 to 1 µM | < 0.1 µM | 1 to 10 µM | 1 to 10 µM
22 | CC[C@@H]1CN(c2ccc(C(=O)Nc3cc(F)c4nc(C)cn4c3)c3nnccc23)CCN1 [Compound 151] | < 0.1 µM | < 0.1 µM | < 0.1 µM | > 10 µM | 1 to 10 µM
23 | CC[C@H]1CN(c2ccc(C(=O)Nc3cc(F)c4nc(C)cn4c3)c3nnccc23)CCN1 [Compound 152] | < 0.1 µM | 0.1 to 1 µM | < 0.1 µM | > 10 µM | 1 to 10 µM
24 | Cc1cn2cc(NC(=O)c3ccc(N4CCN5CCC[C@@H]5C4)c4ccnnc34)cc(F)c2n1 [Compound 153] | < 0.1 µM | < 0.1 µM | < 0.1 µM | 1 to 10 µM | 0.1 to 1 µM
25 | Cc1cn2cc(NC(=O)c3ccc(N4CCN5CCC[C@H]5C4)c4ccnnc34)cc(F)c2n1 [Compound 154] | < 0.1 µM | 0.1 to 1 µM | < 0.1 µM | 1 to 10 µM | 1 to 10 µM
26 | Cc1cn2cc(NC(=O)c3ccc(N4C[C@H]5C[C@@H]4C5N(C)C)c4ccnnc34)cc(F)c2n1 (some centres unmarked) [Compound 155] | > 10 µM | 1 to 10 µM | 0.1 to 1 µM | > 10 µM | > 10 µM
27 | Cc1cn2cc(NC(=O)c3ccc(N(C)[C@@H]4C[C@H]5CC[C@@H](C4)N5)c4ccnnc34)cc(F)c2n1 [Compound 156] | 1 to 10 µM | 1 to 10 µM | 0.1 to 1 µM | > 10 µM | > 10 µM
28 | Cc1cc2c(N3CCNCC3)ccc(C(=O)Nc3cc(F)c4nc(C)cn4c3)c2nn1 [Compound 159] | < 0.1 µM | < 0.1 µM | < 0.1 µM | 1 to 10 µM | 0.1 to 1 µM
29 | CNC1CCN(c2ccc(C(=O)Nc3cc(F)c4nc(C)cn4c3)c3nc(OC)cnc23)C1 (centres unmarked) [Compound 202, N-{8-fluoro-2-methylimidazo[1,2-a]pyridin-6-yl}-3-methoxy-8-[3-(methylamino)pyrrolidin-1-yl]quinoxaline-5-carboxamide; bis(trifluoroacetic acid)] | < 0.1 µM | – | < 0.1 µM | > 10 µM | > 10 µM
